Test results reported in patent US11554123B2, “Compositions and methods for reactivating latent HIV-1 infections” (Saint Joseph's University, priority 2017, dated 2023).
Values joined by “and” are separate entries in the source; they are usually repeats but may differ in a detail not shown here. Identical values can stand only once. “Also recorded” adds a separate entry of the source. Like-named read-outs stand apart in the source and are kept apart here.

Columns and labels:
Format in all cases: cell-based
IL-17 promoter = IL-17 promoter luciferase reporter assay in 293T cells
[1] = tested on: H3K9ac at the integrated HIV-1 long terminal repeat (LTR); assay: ChIP for H3K9ac at integrated HIV-1 LTR in TZMbl cells; conditions: 48 h; for H3K9ac at the HIV-1 LTR versus SAHA alone (in words): 50 μM Ro5-3335, 10 μM Alprazolam or 10 μM Clonazepam with 5 μM SAHA
Description: (§1) TZMbl cells were cultured with benzodiazepines for 48 hours before chromatin immunoprecipitation analysis. Following treatment, cells were processed for chromatin immunoprecipitation using the Pierce Agarose ChIP Kit (Fisher Scientific) using commercially available antibodies against histone H3 lysine 9 acetylation, STATS, and CBP/P300. Degree of occupancy at the integrated HIV-1 LTR was determined by qPCR using HIV-1 LTR specific primers run on a BioRad CFX384 qPCR machine using Sybr Green methodology.
In order to test the changes driven by these compounds, chromatin immunoprecipitation (ChIP) assays were performed to examine the presence of various proteins and modifications at the integrated HIV-1 long terminal repeat (LTR). TZMbl cells were treated for 48 hours with 50 μM Ro5-3335, 10 μM Alprazolam and 10 μM Clonazepam with or without 5 μM SAHA Acetylation of histone 3 at lysine 9 (H3K9ac) was first examined (FIG. 3B). […] None of the benzodiazepines were able to alter H3K9ac when used alone.

CBP/P300 = assay: ChIP for CBP/P300 at integrated HIV-1 LTR in TZMbl cells; conditions: for recruitment of CBP/P300 to the HIV-1 LTR: addition of 50 μM Ro5-3335 or 10 μM Alprazolam, 48 h, FIG. 3D
Description: as §1
Therefore, ChIP was performed for STATS to determine if benzodiazepine treatment might increase the recruitment of STATS above SAHA treatment (FIG. 3C). All three benzodiazepines were capable of driving recruitment of STATS to the promoter, and further recruitment was seen when used in combination with SAHA. STATS is capable of recruiting the histone acetyl transferase CBP/P300 that acetylates histone 3 at lysine 27, a residue that is not affected by SAHA. […] Addition of both Ro5-3335 and Alprazolam induced recruitment of CBP/P300 to the HIV-1 LTR (by 3 and 7 fold respectively).

JLat10.6 cells = assay: JLat10.6 cell viability (live/dead staining); conditions: 48 h, DMSO control 97%
Description: […] Forty-eight hours after treatment, cells were stained for live dead staining using Live/Dead Red stain (BD Biosciences). Viability was determined by fluorescent detection of the live dead stain using a CYTEK® DxP12 flow cytometer. Comparison to untreated cells was used to determine degree of cell viability.
To examine safety of the treatment and effect on T-cell activation, Jlat10.6 cells were treated with different benzodiazepines with and without SAHA. Forty-eight hours after incubation, cells were harvested and stained with red live/dead staining according to the manufacturer protocol (LIVE/DEAD® Fixable Red Dead Cell Stain Kit, ThermoFisher Scientific) (FIG. 2A). Trichostatin A, used as a positive control induced toxicity (68% viable).

[2] = tested on: acetylated histone 3 at lysine 9 (H3K9); assay: NUCLEO-M imaging of acetylated H3K9 in isolated nuclei; conditions: FIG. 3A
Description: Transcriptionally competent nuclei were isolated from TZM-bl cells by chemical lysis and stored following manufacturer's recommendations (Nuclei Isolation Kit: Nuclei EZ Prep, Sigma-Aldrich, Nuc-101). Nuclei were stained for 1 hour on ice in 5% FBS/PBS solution containing primary antibodies. Nuclei were washed twice in 5% FBS/PBS and stained for 1 hour on ice with appropriate secondary antibodies conjugated with fluorescent dyes. Nuclei were finally washed twice in 5% FBS/PBS and resuspended in the storage buffer provided by the kit (Nuclei Isolation Kit: Nuclei EZ Prep, Sigma-Aldrich, Nuc-101).
Isolated nuclei and TZM-bl cells seeded on a chambered coverglass (NUNC® LAB-TEK® Chambered Coverglass, Thermo Fisher) were imaged with a Zeiss AXIOVERT® microscope with a Zeiss alpha PLAN-FLUAR® 100×, 1.45 N.A., oil objective and a spinning disk confocal scan head (Yokogawa CSU-X1). A 488 nm laser source with 488-25 nm, 617-73 nm and 692-40 nm emission filters were used for the illumination of Alexa Fluor® 488 dye (Thermo Fisher) or SYTO® RNA SELECT® Green Fluorescent cell Stain (Thermo Fisher), and PerCP-Cy5.5 (BD Biosciences) respectively. A 561 nm laser source with 568-25 nm emission filters was used for illumination of ALEXA FLUOR® 555 dye (Thermo Fisher). Digital images were captured sequentially by a high-speed EM-CCD camera with 100 ms exposure time (Photometrics EVOLVE® 512). […]

[3] = tested on: latent HIV-1 in JLat10.6 cell line model of T-cell latency; conditions: for maximal effect in dose dependent reactivation (in words): compared with Alprazolam; for percentage of GFP+ live cells: 10 μM benzodiazepine used independently, 48 h, FIG. 1A, DMSO background 2.8%; for activation compared with the other tested benzodiazepines (in words): in the presence or absence of SAHA
HIV-1 Tat = molecular target: T1, HIV-1 Tat (Human immunodeficiency virus type 1 group M subtype B, UniProt P04608); conditions: TZMbl cells transfected with Tat plasmid, 24 h treatment, FIG. 3E
T1 construct: expressed in transfected cells; host or cells: TZMbl cells

[4] = tested on: primary peripheral blood mononuclear cells (PBMCs) from healthy donors; assay: T cell activation in primary PBMCs (CD69 flow cytometry); conditions: 10 μM Alprazolam in combination with 0.5 μM SAHA, 24 h
Description: To investigate whether alprazolam is specifically activating HIV-1 or having general effect on T cell activation (CD4 and CD8), primary PBMC from two healthy donors were treated with 10 μM, 50 μM Alprazolam or Ro5-3335 respectively alone or in combination with 0.5 μM SAHA. Twenty-four hours after treatment, cells were stained using Zombie yellow live and dead staining and then stained for CD3, CD8, CD4, CD69, and then fixed for analysis by flow cytometry. AntiCD3/CD28 and PHA were included as a positive control. Samples were analyzed on a CYTEK® DxP12 flow cytometer followed by analysis using FLOWJO® v10 software (Treestar)
In order to investigate whether alprazolam was specifically activating HIV-1 or having a general effect on T cell activation (CD4 and CD8), primary peripheral blood mononuclear cells (PBMCs) from two healthy donors were treated with 10 μM Alprazolam or 50 μM Ro5-3335, both alone or in combination with 0.5 μM SAHA. Twenty-four hours after treatment, cells were stained using Zombie yellow live and dead staining, then stained for CD3, CD8, CD4, CD69, and then fixed for analysis by flow cytometry. AntiCD3/CD28 and PHA were included as a positive control (FIG. 2B).

HIV-1 Gag mRNA = HIV-1 Gag mRNA (RTqPCR) in ex vivo treated PBMCs from HIV-1 patients; conditions: 24 h; for increase in HIV-1 Gag RNA: 10 μm Alprazolam
Description: (§2) To evaluate the ability of Alprazolam to reactivate latent cells from patients we obtained PBMCs from two HIV-1 patients who had been suppressed on therapy for greater than 6 months. 10×10^6 PBMCs were divided between three conditions: DMSO control, 50 μM Ro5-3335 and 10 μm Alprazolam. PBMCs were cultured in RPMI with 10% FBS and the given drugs for twenty-four hours. RNA was extracted from the cells and used for RTqPCR to detect HIV-1 Gag mRNA. RNA was extracted using Trizol reagent (Invitrogen) following manufacturer's protocol. Following reverse transcription, the samples were diluted 1:50, and 2.5 microliters were used for quantitative PCR in a BioRad CFX384 qPCR machine. All mRNA analyses were normalized to GAPDH. Nucleic acid amplification was tracked by SYBR Green method.
In order to evaluate the ability of Alprazolam to reactivate latent cells from patients, PBMCs were obtained from two HIV-1 patients who had been suppressed on therapy for greater than 6 months. 10×10^6 PBMCs were divided between three conditions: DMSO control, 50 μM Ro5-3335 and 10 μm Alprazolam. PBMCs were cultured in RPMI with 10% FBS and the given drugs for twenty-four hours. RNA was extracted from the cells and used for RTqPCR to detected HIV-1 Gag mRNA (FIG. 6). […] Treatment with Alprazolam produced detectable reactivation of HIV-1 transcripts.

RUNX1 responsive genes = assay: RUNX responsive gene expression (qPCR) in PBMCs from HIV-1 patients; conditions: PBMCs of three HIV-1 patients, 48 h
Description: as §2
Next, expression of several RUNX responsive genes in PBMCs in response to Ro5-3335 and Alprazolam was examined. Samples from three HIV-1 patients were treated with Alprazolam or Ro5-3335 for 48 hours. RNA was harvested using Trizol and cDNA was synthesized using RT reaction. qPCR was performed using primers for seven known RUNX1 responsive genes: APOBEC3C, APOBEC3G, Tbet, RUNX1 d, IL-2, IL7R and STAH (FIG. 5).

T1 sequence (P04608 whole entry): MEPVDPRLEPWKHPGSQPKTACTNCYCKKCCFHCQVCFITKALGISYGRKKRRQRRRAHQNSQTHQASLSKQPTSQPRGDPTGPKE

Compound: O=C(CCCCCCC(=O)Nc1ccccc1)NO [SAHA, N-hydroxy-N′-phenyloctanediamide]
- IL-17 driven luciferase expression (in words) (IL-17 promoter; SAHA treatment compared to control): increased IL-17 driven luciferase expression
- occupancy of H3K9ac at the promoter (in words) ([1]; 5 μM SAHA alone, compared to DMSO control): increased the occupancy of H3K9ac
- recruitment of CBP/P300 (in words) (CBP/P300; SAHA alone): no increase in recruitment
- viability (JLat10.6 cells; 0.5 μM SAHA): 94.6%
- acetylated H3K9 in the nuclei (in words) ([2]; SAHA alone): increase in acetylated H3K9; also recorded: increase in acetylated histone 3 at lysine 9
- GFP+ cells ([3]; 0.5 uM SAHA alone, FIG. 1B): 5.9%
- GFP+ cells ([3]; SAHA alone, FIG. 1A screen, DMSO 2.8%): 6.2%

Compound: O=C(O)C1N=C(c2ccccc2)c2cc(Cl)ccc2NC1=O (stereo not drawn) [Clorazepate]
- luciferase expression driven by Tat (in words) (HIV-1 Tat): additional activation beyond what was seen with Tat alone
- maximal effect in dose dependent reactivation (in words) ([3]; alone, FIG. 1B): smaller maximal effect, but at lower doses

Compound: CN1C(=O)CN=C(c2ccccc2F)c2cc([N+](=O)[O-])ccc21 [Flunitrazepam]
- percentage of GFP+ live cells [3]: 9.1%

Compound: Cc1nnc2n1-c1ccc(Cl)cc1C(c1ccccc1)=NC2 [Alprazolam]
- IL-17 promoter luciferase activity (in words) (IL-17 promoter; RUNX1 over expression): increased luciferase activity
- IL-17 promoter activity (in words) (IL-17 promoter; absence of SAHA or RUNX1 over expression, lowest dose 0.1 μM): statistically significant suppression
- IL-17 promoter luciferase activity (in words) (IL-17 promoter; in the presence of SAHA): no effect on luciferase activity
- H3K9ac at the HIV-1 LTR versus SAHA alone (in words) [1]: further increased acetylation over SAHA alone
- recruitment of CBP/P300 to the HIV-1 LTR (CBP/P300): 7 fold
- luciferase expression driven by Tat (in words) (HIV-1 Tat): additional activation beyond what was seen with Tat alone
- T cell activation (in words) [4]: did not induce any significant T cell activation
- T cell activation (in words) ([4]; listed as alprazolam): did not induce significant T-cell activation
- increase in HIV-1 Gag RNA (HIV-1 Gag mRNA; Patient 1, versus DMSO control): 4.6 fold
- increase in HIV-1 Gag RNA (HIV-1 Gag mRNA; Patient 2, versus DMSO control): 3.3 fold
- percentage of GFP+ live cells [3]: 20.3%
- GFP+ cells, dose dependent reactivation ([3]; alone, at 10 μM, FIG. 1B, DMSO control 2.8%): 25.5%
- activation compared with the other tested benzodiazepines (in words) [3]: maximum activation

Compound: O=C1CN=C(c2ccc[nH]2)c2cc(Cl)ccc2N1 [Ro5-3335]
- IL-17 promoter activity (in words) (IL-17 promoter; all three conditions: alone, with SAHA, with RUNX1 overexpression): inhibited IL-17 promoter in a dose dependent fashion
- expression of seven selected RUNX responsive genes (in words) (RUNX1 responsive genes): significantly altered the expression of five of the selected RUNX responsive genes
- H3K9ac at the HIV-1 LTR versus SAHA alone (in words) [1]: potentiation was not seen
- recruitment of CBP/P300 to the HIV-1 LTR (CBP/P300): 3 fold
- luciferase expression driven by Tat (in words) (HIV-1 Tat): significantly suppressed luciferase expression; also recorded: significant suppression of Tat
- acetylated H3K9 in the nuclei (in words) ([2]; Ro5-3335 and SAHA): further increased the acetylation; also recorded: increase in acetylated histone 3 at lysine 9
- increase in HIV-1 transcripts (Gag mRNA) (HIV-1 Gag mRNA; 50 μM Ro5-3335 alone, two patients, versus DMSO control): 1.5 fold and 1.2 fold
- activation of latent virus (in words) ([3]; Ro5-3335 by itself, without SAHA): did not activate the virus by itself

Compound: O=C1CN=C(c2ccccc2Cl)c2cc([N+](=O)[O-])ccc2N1 [Clonazepam]
- H3K9ac at the HIV-1 LTR versus SAHA alone (in words) [1]: potentiation was not seen
- maximal effect in dose dependent reactivation (in words) ([3]; alone, FIG. 1B): smaller maximal effect, but at lower doses

Compound: CN1C(=O)CN=C(c2ccccc2)c2cc(Cl)ccc21 [Diazepam]
- percentage of GFP+ live cells [3]: 12.4%
- activation compared with the other tested benzodiazepines (in words) [3]: maximum activation

Compound: CC(/C=C/C(=O)NO)=C\[C@@H](C)C(=O)c1ccc(N(C)C)cc1 [Trichostatin A, [R-(E,E)]-7-[4-(Dimethylamino)phenyl]-N-hydroxy-4,6-dimethyl-7-oxo-2,4-heptadienamide]
- viable cells (JLat10.6 cells; positive control): 68%
